Like-named read-outs stand apart in the source and are kept apart here.
Legend:
[1] = tested on: MUC5A/C secretion in hCLCA1 expressing H292 cells; experiment: MUC5A/C secretion by ELLA in hCLCA1 expressing H292 cells; format: cell-based, human; set-up: key to ELLA: (+) = inhibition; (−) = no inhibition
[2] = tested on: H292 clone 15 cells; experiment: ELLA for MUC5AC, H292 clone 15 cells (Example 11); format: cell-based, human; details: Homo sapiens, NCI-H292; MUC5AC in conditioned media; 48 hours; average of 3 experiments
Procedure: ELLA (Enzyme-Linked Lectin Assay) was used to determine the inhibitory effect of compounds on mucus production by H292 clone 15 cells. H292 clone 15 cells, a subclone from human pulmonary mucoepidermoid carcinoma cells overexpressing hCLCA1, were grown to confluent, followed by incubation with increasing concentrations of compounds for 48 hours. Conditioned media were collected and MUC5AC (the major secretory mucin in lungs) content was determined by ELLA measurement as described below. 96 well microtiter plates were coated with a mouse monoclonal antibody against human MUC5AC (1-13M1, NeoMarkers), then incubated with test conditioned media. Bound MUC5AC was detected by horseradish peroxidase-conjugated soybean lectin that has a high affinity towards highly-glycosylated proteins such as MUC5AC. Conversion of peroxidase substrate TMB (Tetramethylbenzidine Base) was quantified by reading at 450 nm. O.D. (optical density) readings were plotted against concentrations of compounds. Linear regression was used to derive the concentration at which O.D. was reduced by 50% (IC50) when compared to vehicle-treated cells.

[3] = tested on: H292 clone 15 cells; experiment: Alamar Blue cytotoxicity; details: H292 clone 15 cells; 48 hours; average of 3 experiments
[4] = tested on: activated Caco2 cells; experiment: PAS staining for mucin in activated Caco2 cells
[5] = tested on: activated Caco2 cells; details: Caco-2
[6] = tested on: NCI-H292/hCLCA1 cells; experiment: AB/PAS staining of mucous glycoconjugates in NCI-H292/hCLCA1 cells; format: cell-based, human; details: NFA 100 μM, MFA 125 or 250 μM, talniflumate 12.5, 25 or 50 μM; vs untreated cells
Procedure: For the determination of mucous glycoconjugate production, NCI-H292/ctl and NCI-H292/hCLCA1 (AAF 15) cells were cultured in 24-well plates for 3 days. Cells were then fixed with Formalin and mucous glycoconjugates were visualized by AB/PAS staining (Sigma). […] For chloride channel blockage studies, cells were cultured in the presence of niflumic acid (NFA) (Sigma) at 100 μM concentration, mefanamic acid (MFA) at 125 or 250 μM or talniflumate at 12.5, 25 or 50 μM, or media alone.
For the determination of mucous glycoconjugate production, NCI-H292/hCLCA1 cells were cultured in 24-well plates for 3 days with at concentrations of 0 to 150 μM of the talniflumate enantiomers or media alone (control). Cells were then fixed with Formalin and mucous glycoconjugates were visualized by AB/PAS staining (Sigma). […] In this assay both enantiomers were seen to inhibit muco-glycoconjugate production at concentrations>40 μM.

[7] = tested on: murine chloride channel, mCLCA1; experiment: Patch clamp chloride current, HEK293 cell expressing mCLCA1; format: cell-based; details: for Chloride Current: + ionomycin + Ca
Procedure: A HEK293 cell transfected with a plasmid expressing a murine chloride channel, mCLCA1, was patch clamped and chloride current was measured over a range of voltages (V, left column) and the results are shown in Table 3 below. Each row lists currents invoked at a particular positive voltage in the absence (−) or presence (+) of ionomycin and calcium, and in the presence of an indicated concentration of diclofenac (μM). Substantial current was invoked by the addition of 2 μM ionomycin and 2 mM calcium-compare the first two columns-indicating activation of mCLCA1 by the ionomycin/calcium treatment. For example, at 100 mV of positive voltage, the chloride current was increased from 39 nA/pF to 105 nA/pF.

**Q.** `O=C1OC(OC(=O)c2cccnc2Nc2cccc(C(F)(F)F)c2)c2ccccc21` (single isomer, unassigned; enantiomer 1) [enantiomer 1] was tested. Which “IC50, inhibition of MUC5A/C secretion” value ([1]; NCI-H292/hCLCA1 cells, 0 through 150 μM, 48 hours, FIG. 26) did it give?
**A.** The value was “not inhibitory”.

**Q.** For `O=C1OC(OC(=O)c2cccnc2Nc2cccc(C(F)(F)F)c2)c2ccccc21` (single isomer, unassigned; enantiomer 2) [enantiomer 2], which IC50 ([1]; NCI-H292/hCLCA1 cells, 0 through 150 μM, 48 hours, FIG. 26, read-out: IC50, inhibition of MUC5A/C secretion) is on record?
**A.** Its IC50 is 40 µM.

**Q.** With `COC(=O)c1cccnc1Nc1cccc(C(F)(F)F)c1` [1 (MSI 2213), Niflumic acid methyl ester] as the compound, how does the ELLA ([1]; Table 2, mucin production) read?
**A.** Its ELLA is “−”.

**Q.** Which IC50 [2] does the source give for `O=C(CC1OC(=O)c2ncccc21)c1cccnc1Nc1cccc(C(F)(F)F)c1` (stereo not shown) [Compound 1] here?
**A.** Its IC50 is 2 µM.

**Q.** What about the “Est. LD50 (Alamar Blue)” value [3] of the same compound?
**A.** The value was 11 µM.

**Q.** For `COC(=O)c1ccccc1/C=C/C(=O)c1cccnc1Nc1cccc(C(F)(F)F)c1` [Compound 2], which IC50 [2] is on record?
**A.** The IC50 was 4 µM.

**Q.** What about the “Est. LD50 (Alamar Blue)” value [3] of the same compound?
**A.** Its value is 16 µM.

**Q.** Which results are given for `Cc1c(Cl)cccc1Nc1ccccc1C(=O)CC1OC(=O)c2ccccc21` (stereo not shown) [Compound 3]?
**A.** IC50 [2]: 1.2 µM; Est. LD50 (Alamar Blue) [3]: 19 µM

**Q.** Which results are given for `Cc1c(Cl)cccc1Nc1ccccc1C(=O)CCc1ccccc1C(=O)O` [Compound 4]?
**A.** IC50 [2]: 1.6 µM; Est. LD50 (Alamar Blue) [3]: 27 µM

**Q.** `Cc1cccc(Nc2ccccc2C(=O)CC2OC(=O)c3ccccc32)c1C` (stereo not shown) [Compound 5] was tested. Which IC50 [2] did it give?
**A.** Its IC50 is 4 µM.

**Q.** What about the “Est. LD50 (Alamar Blue)” value [3] of the same compound?
**A.** Its value is 35 µM.

**Q.** Which results are given for `Cc1cccc(Nc2ccccc2C(=O)CCc2ccccc2C(=O)O)c1C` [Compound 6]?
**A.** IC50 [2]: 3 µM; Est. LD50 (Alamar Blue) [3]: 27 µM

**Q.** `O=C(CC1OC(=O)c2ccccc21)c1ccccc1Nc1cccc(C(F)(F)F)c1` (stereo not shown) [Compound 7] was tested. Which IC50 [2] did it give?
**A.** Its IC50 is 24 µM.

**Q.** What about the “Est. LD50 (Alamar Blue)” value [3] of the same compound?
**A.** The value was 69 µM.

**Q.** For `O=C(O)c1ccccc1CCC(=O)c1ccccc1Nc1cccc(C(F)(F)F)c1` [Compound 8], which IC50 [2] is on record?
**A.** The IC50 was 10 µM.

**Q.** And the “Est. LD50 (Alamar Blue)” value [3]?
**A.** Its value is 30 µM.

**Q.** What does the source list for `O=C1OC(CC(=O)c2cccnc2Oc2ccccc2)c2ccccc21` (stereo not shown) [Compound 9]?
**A.** IC50 [2]: 5 µM; Est. LD50 (Alamar Blue) [3]: 43 µM

**Q.** Which results are given for `O=C(O)c1ccccc1CCC(=O)c1cccnc1Oc1ccccc1` [Compound 10]?
**A.** IC50 [2]: 44 µM; Est. LD50 (Alamar Blue) [3]: 885 µM

**Q.** With `O=C1OC(CC(=O)c2cccnc2Oc2cccc(Cl)c2)c2ccccc21` (stereo not shown) [Compound 11] as the compound, how does the IC50 [2] read?
**A.** Its IC50 is 2 µM.

**Q.** What about the “Est. LD50 (Alamar Blue)” value [3] of the same compound?
**A.** The value was 23 µM.

**Q.** Which results are given for `O=C1OC(CC(=O)c2cccnc2Oc2ccc(F)cc2F)c2ccccc21` (stereo not shown) [Compound 12]?
**A.** IC50 [2]: 1.9 µM; Est. LD50 (Alamar Blue) [3]: 22 µM

**Q.** How did the IC50 [2] turn out when `O=C1OC(CC(=O)c2cccnc2Oc2cccc(Cl)c2Cl)c2ccccc21` (stereo not shown) [Compound 13] was run?
**A.** The IC50 was 1 µM.

**Q.** And the “Est. LD50 (Alamar Blue)” value [3]?
**A.** Its value is 10 µM.

**Q.** How did the IC50 [2] turn out when `O=C1OC(CC(=O)c2cccnc2Oc2cccc(Br)c2)c2ccccc21` (stereo not shown) [Compound 14] was run?
**A.** The IC50 was 2.3 µM.

**Q.** And the “Est. LD50 (Alamar Blue)” value [3]?
**A.** Its value is 16 µM.

**Q.** Which IC50 [2] does the source give for `O=C(CC1OC(=O)c2ccccc21)c1ccccc1Sc1ccccc1Cl` (stereo not shown) [Compound 15] here?
**A.** The IC50 was 2.5 µM.

**Q.** What about the “Est. LD50 (Alamar Blue)” value [3] of the same compound?
**A.** Its value is 15 µM.

**Q.** How did the “PAS positive staining mucin glycoconjugates” value ([4]; activated Caco2 cells, 100 μm for NFA and 300 μm for DIDS, vs untreated cells) turn out when `O=S(=O)(O)c1cc(N=C=S)ccc1C=Cc1ccc(N=C=S)cc1S(=O)(=O)O` [DIDS, 4,4′-diisothiocyanostilbene-2,2′-disulfonic acid] was run?
**A.** Its value is “significantly fewer positive staining mucin glycoconjugates”.

**Q.** How did the “Mucin production by activated Caco2 cells” value [5] turn out when `O=C(O)c1ccccc1Nc1cccc(C(F)(F)F)c1` [Flufenamate] was run?
**A.** Its value is “inhibited”.

**Q.** With `Cc1ccc(Cl)c(Nc2ccccc2C(=O)O)c1Cl` [Meclofenamate] as the compound, how does the “Mucin production by activated Caco2 cells” value [5] read?
**A.** Its value is “partially”.

**Q.** For `Cc1cccc(Nc2ccccc2C(=O)O)c1C` [Mefenamate], which “PAS positive staining muco-glycoconjugates” value [6] is on record?
**A.** The value was “significantly fewer positive staining muco-glycoconjugates”.

**Q.** And the “Mucin production by activated Caco2 cells” value [5]?
**A.** The value was “partially”.

**Q.** How did the “Mucin production by activated Caco2 cells” value [5] turn out when `COc1ccc2cc([C@H](C)C(=O)O)ccc2c1` [Naproxen] was run?
**A.** Its value is “ineffective”.

**Q.** Which “Inhibition of MUC5A/C secretion / mucin production (figure legends)” value ([1]; hCLCA1 expressing H292 cells, 48 hours) does the source give for `CS(=O)(=O)Nc1ccc([N+](=O)[O-])cc1Oc1ccccc1` [Nimesulide] here?
**A.** The value was “inhibition of MUCSA/C secretion”.

**Q.** With `CC1=C(CC(=O)O)c2cc(F)ccc2/C1=C\c1ccc([S+](C)[O-])cc1` (stereo not shown) [Sulindac] as the compound, how does the “Mucin production by activated Caco2 cells” value [5] read?
**A.** The value was “ineffective”.

**Q.** Which “Mucin production by activated Caco2 cells” value ([4]; FIG. 2) does the source give for `Cc1c(Cl)cccc1Nc1ccccc1C(=O)O` [Tolfenamate] here?
**A.** Its value is “inhibited”.

**Q.** How did the “Inhibition of chloride channel activity” value ([7]; diclofenac 5 μM to 50 μM) turn out when `O=C(O)Cc1ccccc1Nc1c(Cl)cccc1Cl` [diclofenac] was run?
**A.** The value was “did not inhibit chloride channel activity”.

**Q.** And the “Chloride Current” value ([7]; diclofenac 5 μM, 0 mV)?
**A.** Its value is 20 nA/pF.

**Q.** What about the “Chloride Current” value ([7]; diclofenac 5 μM, 20 mV) of the same compound?
**A.** The value was 36 nA/pF.

**Q.** What about the “Chloride Current” value ([7]; diclofenac 5 μM, 40 mV) of the same compound?
**A.** The value was 53 nA/pF.

**Q.** And the “Chloride Current” value ([7]; diclofenac 5 μM, 60 mV)?
**A.** Its value is 72 nA/pF.

**Q.** And the “Chloride Current” value ([7]; diclofenac 5 μM, 80 mV)?
**A.** The value was 92 nA/pF.

**Q.** What about the “Chloride Current” value ([7]; diclofenac 5 μM, 100 mV) of the same compound?
**A.** Its value is 115 nA/pF.

**Q.** What about the “Chloride Current” value ([7]; diclofenac 20 μM, 0 mV) of the same compound?
**A.** Its value is 20 nA/pF.

**Q.** What about the “Chloride Current” value ([7]; diclofenac 20 μM, 20 mV) of the same compound?
**A.** The value was 34 nA/pF.

**Q.** And the “Chloride Current” value ([7]; diclofenac 20 μM, 40 mV)?
**A.** The value was 51 nA/pF.

**Q.** What about the “Chloride Current” value ([7]; diclofenac 20 μM, 60 mV) of the same compound?
**A.** Its value is 69 nA/pF.

**Q.** And the “Chloride Current” value ([7]; diclofenac 20 μM, 80 mV)?
**A.** Its value is 88 nA/pF.

**Q.** And the “Chloride Current” value ([7]; diclofenac 20 μM, 100 mV)?
**A.** Its value is 109 nA/pF.

**Q.** And the “Chloride Current” value ([7]; diclofenac 50 μM, 0 mV)?
**A.** The value was 19 nA/pF.

**Q.** And the “Chloride Current” value ([7]; diclofenac 50 μM, 20 mV)?
**A.** The value was 33 nA/pF.

**Q.** And the “Chloride Current” value ([7]; diclofenac 50 μM, 40 mV)?
**A.** Its value is 48 nA/pF.

**Q.** And the “Chloride Current” value ([7]; diclofenac 50 μM, 60 mV)?
**A.** Its value is 66 nA/pF.

**Q.** What about the “Chloride Current” value ([7]; diclofenac 50 μM, 80 mV) of the same compound?
**A.** Its value is 85 nA/pF.

**Q.** What about the “Chloride Current” value ([7]; diclofenac 50 μM, 100 mV) of the same compound?
**A.** Its value is 106 nA/pF.
